Here are results for five compounds from patent US20100076059A1, “METHOD OF EVALUATING COMPOUND EFFICACIOUS IN TREATING OBESITY BY USING Slc25a10” (priority 2003, published 2010).

One data set deals with S1c25a10 gene. The experiment in a line: S1c25a10 expression in white adipocytes (WAT) of mouse models, U74A / 25K1.8 chip. Type of data set: in vivo. Conditions: non-treated C57BL/6N mice defined as 1. The protocol:
A mouse model of obesity induced by administration of an NPY Y5 agonist was prepared in the following manner. Nine- to twelve-week-old male mice (C57BL/6J: Clea Japan) were raised under conditions with a room temperature of 23±2° C. and a humidity of 55±15%, with one mouse in each plastic cage. The mice were raised under a 12 hour lightness/darkness cycle, with lights on at 7:00 am and lights off at 7:00 pm. The mice were also given free access to feed (CE-2 (25.4 wt % protein, 50.3 wt % carbohydrate, 4.4 wt % lipid), Clea Japan) and water.
The mice were anesthetized with 80 mg/kg sodium pentobarbital (Dynabot) and a 28-gauge sterilized brain infusion cannula (Alzet Co.) was stereotactically implanted in the right cerebral ventricle. The cannula was positioned 0.4 mm behind and 0.8 mm to the side of the bregma, and to a depth of 2 mm, and was anchored vertically with respect to the cranial bone using dental cement. A polyvinyl chloride tube was used to connect the cannula to an osmotic pump (Model #2002: Alzet Co.) filled with 10 mM phosphate buffer containing 0.05% bovine serum albumin (BSA). A solution of D-Try^34 NPY in 10 mM PBS (containing 0.05% BSA) (prepared for 5 μg/day) was filled into the pump, and the pump was implanted subcutaneously at the back of the mouse for continuous infusion. An antibiotic (50 mg/kg cefamedine, product of Fujisawa Pharmaceutical Co., Ltd.) was also subcutaneously injected.
The mice were divided into three groups: a normally-fed group given infusion of the solvent alone (vehicle group); an obesity-induced group given infusion of D-Try^34 NPY (NYP Y5 agonist) with an increased food amount (ad lib fed group); and a group given infusion of D-Try^34 NPY but with food restricted to the same amount as the vehicle group (pair-fed group).
A mouse model of obesity induced by administration of MCH (melanin-concentrating hormone) was prepared in the following manner. Thirteen-week-old male mice (C57BL/6J: Clea Japan) were raised under conditions with a room temperature of 23±2° C. and a humidity of 55±15%, with one mouse in each plastic cage. The mice were raised under a 12 hour lightness/darkness cycle, with lights on at 7:00 am and lights off at 7:00 pm. The mice were also given free access to food (CE-2 (25.4 wt % protein, 50.3 wt % carbohydrate, 4.4 wt % lipid), Clea Japan) and water. […]
The mouse models prepared in Preparation Examples 1-4 were used for measurement of S1c25a10 expression in white adipocytes (WAT). The expression levels were measured by treating RNA extracted from white adipocytes from each mouse model using a mouse U74A chip (Affymetrix) and a mouse 25K1.8 chip (Rossetta).

A further data set relates to human S1c25a10 gene. The experiment in a line: Suppression of human S1c25a10 expression by siRNA transfection (RNAi). It is filed as cell-based. Conditions: siRNA to human S1c25a10 gene. From the text:
(§1) First, a silencer siRNA construction kit (Ambion Inc.) was used to synthesize siRNA. Next, in order to determine the optimum sequences for human or mouse S1c25a10, twelve different sequences were examined based on suppression of S1c25a10 expression. FIG. 6(a) and (b) show the relative expression levels of S1c25a10 gene in each of the siRNA-transfected cells.
The sequence of each siRNA is shown below. The “Position” indicates the corresponding nucleic acid position of the human S1c25a10 gene (NM_012140) for each siRNA.
Next, siRNA-transfected cells were prepared. For siRNA transfection, the cells were seeded on a 6-well plate at a density of 2×10^4 cells/well. After 24 hours, the siRNA (H4 or H10) was transfected into the cells using Oligofectamine (Invitrogen). On the 2nd day after transfection, the cells were harvested and RNA was prepared using RNeasy (Qiagen). cDNA was prepared from the RNA by quantitative RT-PCR (Applied Biosystems), for quantitation of the S1c25a10 and ACC1 expression levels.

For a further data set, the system named is HEK293 cells. The experiment in a line: DiOC6 staining of mitochondrial proton gradient in HEK293 cells. Type of data set: cell-based. Conditions: DiOC6-stained HEK293 cells. As to the method: First, HEK293 cells were seeded in a 6-well plate at a density of 2×10^6 cells/well. After 24 hours, S1c25a10 gene cloned in pcDNA 3.1 vector was transfected into the cells using Lipofectamine 2000. As a negative control there were used cells having only the vector transfected, and as positive controls there were used cells having mouse UCP1 transfected and cells having human UCP3 transfected.
After 48 hours from transfection of the gene, the mitochondrial gradient sensitivity-indicating agent DiOC6 (3-3′-dihexyloxacarbocyanine iodide) was used for staining. The staining was performed by treating the cells with 0.3 μM DiOC6 for 20 minutes followed by rinsing twice with PBS. DiOC6 binds to mitochondria in greater amount as the proton gradient increases, emitting strong fluorescence. On the other hand, it binds to mitochondria in lower amount as the proton gradient decreases, resulting in weaker fluorescent intensity.
FIG. 1(a) is a confocal micrograph showing DiOC6-stained HEK293 cells treated with CCCP (carbonyl cyanide m-chlorophenylhydrazone) which uncouples the intracellular mitochondrial proton gradient, and FIG. 1(b) is a photograph of HEK293 cells without CCCP treatment. With the untreated HEK293 cells, the intracellular mitochondria are clearly stained by outlining dots. […] It was thus confirmed that the mitochondria had been stained in a proton gradient-specific manner. […]

Another data set deals with mouse S1c25a10 gene. The experiment in a line: Suppression of mouse S1c25a10 expression by siRNA transfection (RNAi). Type of data set: cell-based. Particulars: siRNA to mouse S1c25a10 gene.
Excerpt: as §1
The nucleotide sequences of siRNA corresponding to the mouse S1c25a10 gene (NM_013770) are also shown below.

Where [1] appears, read: administered mice, ad lib fed (FF).

Where no end group is shown, it is not given here.

On to D-Try^34 NPY, for which the figures for the Slc25a10 expression in the data set with S1c25a10 gene (setting [1]) and in the data set on S1c25a10 gene (pair feeding (PF) mice) were 3.0 and 1.9, respectively.
“H4: siRNA to human S1c25a10 gene, Position 556, SEQ ID NOs: 9 and 10 (chain 1 AAACAGTCTCCTGAGACCCTCCCTGTCTC; chain 2 AAGAGGGTCTCAGGAGACTGTCCTGTCTC; listed as DNA, chemistry not given here)”: the “S1c25a10 gene expression (inhibiting effect)” value is given as “particularly powerful inhibiting effects” with human S1c25a10 gene; “powerfully inhibit S1c25a10 expression” with human S1c25a10 gene (listed as siRNA consisting of nucleic acids of SEQ ID NOs: 9 and 10); “significantly reduce expression” in the data set with human S1c25a10 gene (listed as siRNA consisting of the nucleic acids of SEQ ID NOs: 9 and 10).
On to `N#CC(C#N)=NNc1cccc(Cl)c1` [CCCP, carbonyl cyanide m-chlorophenylhydrazone], for which, in the data set with HEK293 cells (confocal micrograph, versus untreated cells), the fluorescent intensity result was “significantly reduced”. Further, the Mean fluorescent intensity in the data set with HEK293 cells (flow cytometer) was found to be 5.4.
“melanin-concentrating hormone (DFDMLRCMLGRVYRPCWQV; ends and bridges not checked; cysteine pairing not given here; UniProt P56942 147-165, looked up) [MCH, MCH infused i.c.v. to induce obesity in mice]”: the values for the Slc25a10 expression in the data set on S1c25a10 gene (setting [1]) and in the data set on S1c25a10 gene (pair feeding (PF) mice) were 1.7 and 2.4, respectively.
Regarding “M8: siRNA to mouse S1c25a10 gene, Position 1159, SEQ ID NOs: 41 and 42 (chain 1 AAGTGGCACCTCTGCCCTACTCCTGTCTC; chain 2 AAAGTAGGGCAGAGGTGCCACCCTGTCTC; listed as DNA, chemistry not given here)”, the “S1c25a10 gene expression (inhibiting effect)” value is “particularly powerful inhibiting effects” with mouse S1c25a10 gene; “powerfully inhibit S1c25a10 expression” with mouse S1c25a10 gene (listed as siRNA consisting of nucleic acids of SEQ ID NOs: 41 and 42); “significantly reduce expression” with mouse S1c25a10 gene (listed as siRNA consisting of the nucleic acids of SEQ ID NOs: 41 and 42).
